Experimental findings from patent publication US6387896B1, “Bicyclic oxazolidinones as antibacterial agents” (Pharmacia & Upjohn Co., priority 1999, dated 2002) are described below.

The test system of data set [1] is Moraxella catarrhalis UC® 30610. Description: Minimum inhibitory concentration (MIC) by agar dilution, Moraxella catarrhalis. As to conditions: UC30610, lowest concentration that inhibits visible growth, read-out: Minimum Inhibitory Concentration M.CAT. It counts as cell-based. The source says:
(§1) The oxazolidinone antibacterial agents of this invention have useful activity against a variety of organisms. The in vitro activity of compounds of this invention can be assessed by standard testing procedures such as the determination of minimum inhibitory concentration (MIC) by agar dilution as described in “Approved Standard. Methods for Dilution Antimicrobial Susceptibility Tests for Bacteria That Grow Aerobically”, 3rd. ed., published 1993 by the National Committee for Clinical Laboratory Standards, Villanova, Pa., USA. The activity of compounds of this invention against Staphylococcus aureus, Staphylococcus epidermidis, Streptococcus pneumoniae, Enterococcus faecalis, Moraxella catarrhalis and H. influenzae is shown in Table 1. No. 1 is Methicillin-susceptible S. aureus UC® 9213. No. 2 is Moraxella catarrhalis UC® 30610. Minimum inhibitory concentration: lowest concentration of drug (μg/mL) that inhibits visible growth of the organism.

For data set [2], the system named is Methicillin-susceptible S. aureus UC® 9213. Description: Minimum inhibitory concentration (MIC) by agar dilution, S. aureus. The format is cell-based. As to conditions: Staphylococcus aureus, UC9213, lowest concentration that inhibits visible growth.
Source text: as §1

Values after ≈ are worked out from the molar mass of the structure shown.

With `CC(=O)NCC1CN(c2ccc3c(c2)CC(C)S3)C(=O)O1` (stereo in doubt) [Example 20, N-{[(5R)-3-(2(+)-methyl-2,3-dihydro-1-benzothien-5-yl)-2-oxo-1,3-oxazolidin-5-yl]methyl}acetamide], the MIC was 16 µg/mL (≈ 52.2 µM) in data set [1] and 4 µg/mL (≈ 13.1 µM) in data set [2].
On to `CC(=O)NC[C@H]1CN(c2ccc3c(c2)CC(C)N3CCF)C(=O)O1` (stereo partly drawn) [Example 1, N-({(5S)-3-[1-(2-Fluoroethyl)-2-methyl-2,3-dihydro-1H-indol-5-yl]-2-oxo-1,3-oxazolidin-5-yl}methyl)acetamide], for which the melting point lay in the range of 127 to 130 °C.
Regarding `CC(=O)NC[C@H]1CN(c2ccc3c(c2)CC(C)N3C(=O)CO)C(=O)O1` (stereo partly drawn) [Example 2, N-{[(5S)-3-(1-Glycoloyl-2-methyl-2,3-dihydro-1H-indol-5-yl)-2-oxo-1,3-oxazolidin-5-yl]methyl}acetamide], the melting point fell in the range of 130 to 133 °C.
For the molecule `CC(=O)NC[C@H]1CN(c2ccc3c(c2)C[C@@H](C)N3C(=O)CO)C(=O)O1` [Example 3, N-({(5S)-3-[(2R)-1-Glycoloyl-2-methyl-2,3-dihydro-1H-indol-5-yl]-2-oxo-1,3-oxazolidin-5-yl}methyl)acetamide], the MIC in data set [1] and in data set [2] was 4 µg/mL (≈ 11.5 µM) throughout.
Regarding `CC(=O)NC[C@H]1CN(c2ccc3c(c2)C[C@@H](C)N3C=O)C(=O)O1` [Example 4, N-({(5S)-3-[(2R)-1-Formyl-2-methyl-2,3-dihydro-1H-indol-5-yl]-2-oxo-1,3-oxazolidin-5-yl}methyl)acetamide], the melting point lay within 158 to 159 °C. Also, the MIC in data set [1] stood at 4 µg/mL (≈ 12.6 µM). Moreover, the MIC in data set [2] worked out at 1 µg/mL (≈ 3.15 µM).
The matching figures for `CCC(=O)NC[C@H]1CN(c2ccc3c(c2)C[C@@H](C)N3C=O)C(=O)O1` [Example 5, N-({(5S)-3-[(2R)-1-Formyl-2-methyl-2,3-dihydro-1H-indol-5-yl]-2-oxo-1,3-oxazolidin-5-yl}methyl)propanamide]: 118 to 119 °C, 4 µg/mL (≈ 12.1 µM) and 2 µg/mL (≈ 6.04 µM).
For `CC(=S)NC[C@H]1CN(c2ccc3c(c2)C[C@@H](C)N3C=O)C(=O)O1` [Example 6, N-({(5S)-3-[(2R)-1-Formyl-2-methyl-2,3-dihydro-1H-indol-5-yl]-2-oxo-1,3-oxazolidin-5-yl}methyl)ethanethioamide], in that order: 95 to 96 °C, 1 µg/mL (≈ 3 µM) and below 0.5 µg/mL.
Regarding `COCC(=O)N1c2ccc(N3C[C@H](CNC(C)=O)OC3=O)cc2C[C@H]1C` [Example 7, N-({(5S)-3-[(2R)-1-(2-Methoxyacetyl)-2-methyl-2,3-dihydro-1H-indol-5-yl]-2-oxo-1,3-oxazolidin-5-yl}methyl)acetamide], the melting point fell in the range of 174 to 175 °C. For the same molecule, the MIC in data set [1] amounted to 8 µg/mL (≈ 22.1 µM). The MIC in data set [2] is 4 µg/mL (≈ 11.1 µM).
For `CC(=O)NC[C@H]1CN(c2ccc3c(c2)C[C@@H](C)N3C(=O)COC(C)=O)C(=O)O1` [Example 8, 2-((2R)-5-{(5S)-5-[(Acetylamino)methyl]-2-oxo-1,3-oxazolidin-3-yl}-2-methyl-2,3-dihydro-1H-indol-1-yl)-2-oxoethyl acetate], the melting point fell in the range of 186 to 187 °C. In data set [1], the MIC was found to be 16 µg/mL. Further, in data set [2], the MIC amounted to 8 µg/mL.
For `CC(=O)NC[C@H]1CN(c2ccc3c(c2)C[C@@H](C)N3C(C)=O)C(=O)O1` [Example 9, N-({(5S)-3-[(2R)-1-Acetyl-2-methyl-2,3-dihydro-1H-indol-5-yl]-2-oxo-1,3-oxazolidin-5-yl}methyl)acetamide], the melting point is 184 to 185 °C. Further, in data set [1], the MIC came out at 8 µg/mL (≈ 24.1 µM). In data set [2], this molecule had an MIC of 2 µg/mL (≈ 6.04 µM).
Take `CNC(=S)N1c2ccc(N3C[C@H](CNC(C)=O)OC3=O)cc2C[C@H]1C` [Example 10, N-[((5S)-3-{(2R)-2-Methyl-1-[(methylamino)carbothioyl]-2,3-dihydro-1H-indol-5-yl}-2-oxo-1,3-oxazolidin-5-yl)methyl]acetamide]: the melting point was in the range of 109 to 111 °C. Moreover, in data set [1], the MIC was 8 µg/mL (≈ 22.1 µM). Moreover, the MIC in data set [2] worked out at 4 µg/mL (≈ 11 µM).
`CC(=O)OCC(=O)N1c2ccc(N3C[C@H](CNC(C)=S)OC3=O)cc2C[C@H]1C` [Example 11, 2-((2R)-5-{(5S)-5-[(Ethanethioylamino)methyl]-2-oxo-1,3-oxazolidin-3-yl}-2-methyl-2,3-dihydro-1H-indol-1-yl)-2-oxoethyl acetate]: the MIC is 4 µg/mL in data set [1] and 1 µg/mL in data set [2].
Molecule `CC(=S)NC[C@H]1CN(c2ccc3c(c2)C[C@@H](C)N3C(=O)CO)C(=O)O1` [Example 12, N-({(5S)-3-[(2R)-1-Glycoloyl-2-methyl-2,3-dihydro-1H-indol-5-yl]-2-oxo-1,3-oxazolidin-5-yl}methyl)ethanethioamide] had a melting point of 115 to 117 °C. The MIC in data set [1] turned out to be 1 µg/mL (≈ 2.75 µM). The same molecule displayed an MIC in data set [2] below 0.5 µg/mL.
On to `CC(=O)NC[C@H]1CN(c2ccc3c(c2)CCC(C)N3C=O)C(=O)O1` (stereo partly drawn) [Example 13, N-{[(5S)-3-(1-Formyl-2-methyl-1,2,3,4-tetrahydro-6-quinolinyl)-2-oxo-1,3-oxazolidin-5-yl]methyl}acetamide], for which the melting point is 85 to 87 °C.
With `CC(=O)NC[C@H]1CN(c2ccc3c(c2)CC[C@@H](C)N3C=O)C(=O)O1` [Example 14, N-({(5S)-3-[(2R)-1-Formyl-2-methyl-1,2,3,4-tetrahydro-6-quinolinyl]-2-oxo-1,3-oxazolidin-5-yl}methyl)acetamide], the melting point was in the range of 89 to 91 °C. The MIC in data set [1] is 4 µg/mL (≈ 12.1 µM). Further, the MIC in data set [2] is 2 µg/mL (≈ 6.04 µM).
`CC(=S)NC[C@H]1CN(c2ccc3c(c2)CC[C@@H](C)N3C=O)C(=O)O1` [Example 15, N-({(5S)-3-[(2R)-1-Formyl-2-methyl-1,2,3,4-tetrahydro-6-quinolinyl]-2-oxo-1,3-oxazolidin-5-yl}methyl)ethanethioamide] had a melting point of 184 to 186 °C. The MIC in data set [1] is 1 µg/mL (≈ 2.88 µM). The molecule also gave an MIC in data set [2] below 0.5 µg/mL.
For the molecule `CC(=O)NC[C@H]1CN(c2ccc3c(c2)OCC(C)N3C=O)C(=O)O1` (stereo partly drawn) [Example 16, N-{[(5S)-3-(4-Formyl-3-methyl-3,4-dihydro-2H-1,4-benzoxazin-7-yl)-2-oxo-1,3-oxazolidin-5-yl]methyl}acetamide], the melting point was 118 to 121 °C (dec.).
In the case of `CC(=O)NC[C@H]1CN(c2ccc3c(c2)OC[C@@H](C)N3C=O)C(=O)O1` [Example 17, N-({(5S)-3-[(3R)-4-Formyl-3-methyl-3,4-dihydro-2H-1,4-benzoxazin-7-yl]-2-oxo-1,3-oxazolidin-5-yl}methyl)acetamide], the melting point fell in the range of 148 to 151 °C. In addition, the MIC in data set [1] worked out at 8 µg/mL (≈ 24 µM). For the same molecule, in data set [2], the MIC turned out to be 4 µg/mL (≈ 12 µM).
Turning to `CC(=S)NC[C@H]1CN(c2ccc3c(c2)OC[C@@H](C)N3C=O)C(=O)O1` [Example 18, N-({(5S)-3-[(3R)-4-Formyl-3-methyl-3,4-dihydro-2H-1,4-benzoxazin-7yl]-2-oxo-1,3-oxazolidin-5-yl}methyl)ethanethioamide], the melting point fell in the range of 95 to 98 °C. The MIC in data set [1] was 2 µg/mL (≈ 5.72 µM). Further, the MIC in data set [2] is below 0.5 µg/mL.
For `CC(=O)NC[C@H]1CN(c2ccc3c(c2)CC(CF)N3C=O)C(=O)O1` (stereo partly drawn) [Example 19, (S)-N-[[3-[1-Formyl-2-(fluoromethyl)-5-indolinyl]-2-oxo-5-oxazolidinyl]methyl]acetamide], in that order: 132 to 136 °C, 16 µg/mL (≈ 47.7 µM) and 4 µg/mL (≈ 11.9 µM).
With `CC(=S)NC[C@H]1CN(c2ccc3c(c2)CC(C(C)(C)C)N3C=O)C(=O)O1` (stereo partly drawn) [Example 21, N-[[(5S)-3-[2-(1,1-dimethylethyl)-1-formyl-2,3-dihydro-1H-indol-5-yl]-2-oxo-5-oxazolidinyl]methyl]ethanethioamide], the melting point fell in the range of 219 to 221 °C. In addition, the MIC in data set [1] was 4 µg/mL (≈ 10.7 µM). The molecule also showed an MIC in data set [2] of 2 µg/mL (≈ 5.33 µM).
With `CC(=O)NC[C@H]1CN(c2ccc(N3CCN(C(=O)CO)CC3)c(F)c2)C(=O)O1` [eperezolid, reference compound], the MIC in data set [1] is 8 µg/mL (≈ 20.3 µM); in data set [2] it was 4 µg/mL (≈ 10.1 µM).
In the case of `CC(=O)NC[C@H]1CN(c2ccc(N3CCOCC3)c(F)c2)C(=O)O1` [linezolid, reference compound], the MIC is 8 µg/mL (≈ 23.7 µM) in data set [1] and 4 µg/mL (≈ 11.9 µM) in data set [2].
As for `CN[C@H](CC(C)C)C(=O)N[C@H]1C(=O)N[C@@H](CC(N)=O)C(=O)N[C@H]2C(=O)N[C@H]3C(=O)N[C@H](C(=O)N[C@H](C(=O)O)c4cc(O)cc(O)c4-c4cc3ccc4O)[C@H](O)c3ccc(c(Cl)c3)Oc3cc2cc(c3O[C@@H]2O[C@H](CO)[C@@H](O)[C@H](O)[C@H]2O[C@H]2C[C@](C)(N)[C@H](O)[C@H](C)O2)Oc2ccc(cc2Cl)[C@H]1O` [vancomycin, reference compound], the MIC in data set [1] was above 32 µg/mL; in data set [2], 1 µg/mL (≈ 0.69 µM).
